Results from US20150105252A1, “SUBSTITUTED PYRAZOLES AS HERBICIDES” (E I DU PONT DE NEMOURS AND COMPANY, priority 2013, published 2015).

Assays:
[1] = system: Italian ryegrass; test: Test A postemergence; type: in vivo, Lolium multiflorum
Method in brief: (§1)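 Both timings tested concurrently in loam/sand soil: preemergence by directed soil spray, postemergence on plants of 2–10 cm at the one- to two-leaf stage. Greenhouse holding period was approximately 10 days before visual injury assessment (0–100, 0 = no effect).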

[2] = system: galium; test: Test A postemergence; type: in vivo, Galium aparine
Method in brief: as §1

[3] = system: goosegrass; test: Test F preemergence; type: in vivo, Eleusine indica
Excerpt: (§2) Seeds of plant species selected from corn (Zea mays), soybean (Glycine max), velvetleaf (Abutilon theophrasti), lambsquarters (Chenopodium album), wild poinsettia (Euphorbia heterophylla), pigweed, palmer (palmer pigweed, Amaranthus palmeri), common waterhemp (Amaranthus rudis), surinam grass (Brachiaria decumbens), large crabgrass (Digitaria sanguinalis), crabgrass, Brazil (Brazilian crabgrass, Digitaria horizontalis), fall panicum (Panicum dichotomiflorum), giant foxtail (Setaria faberii), green foxtail (Setaria viridis), goosegrass (Eleusine indica), johnsongrass (Sorghum halepense), common ragweed (Ambrosia elation), barnyardgrass (Echinochloa crus-galli), southern sandbur (Cenchrus echinatus), arrowleaf sida (Sida rhombifolia), Italian ryegrass (Lolium multiflorum), dayflower, VA (Virginia (VA) dayflower, Commelina virginica), field bindweed (Convolvulus arvensis), cocklebur (common cocklebur, Xanthium strumarium), morningglory (Ipomoea coccinea), nightshade (eastern black nightshade, Solanum ptycanthum), kochia (Kochia scoparia), yellow nutsedge (Cyperus esculentus), and hairy beggarticks (Bidens pilosa), were planted into a silt loam soil and treated preemergence with test chemicals formulated in a non-phytotoxic solvent mixture which included a surfactant.
(§3) At the same time, plants from these crop and weed species and also horseweed (Canada horseweed, Conyza canadensis), smartweed (ladysthumb smartweed, Polygonum persicaria), waterhemp_RES1, (ALS & Triazine resistant common waterhemp, Amaranthus rudis), and waterhemp_RES2, (ALS & HPPD resistant common waterhemp, Amaranthus rudis) were treated with postemergence applications of test chemicals formulated in the same manner. Plants ranged in height from 2 to 18 cm for postemergence treatments (1- to 4-leaf stage). Treated plants and controls were maintained in a greenhouse for 14 to 21 days, after which time all species were compared to controls and visually evaluated. Plant response ratings, summarized in Table F, are based on a scale of 0 to 100 where 0 is no effect and 100 is complete control. A dash (-) response means no test result.

[4] = system: Italian ryegrass; test: Test F preemergence; type: in vivo, Lolium multiflorum
Excerpt: as §2, §3

[5] = system: barnyardgrass; test: Test F preemergence; type: in vivo, Echinochloa crus-galli
Excerpt: as §2, §3

[6] = Postemergence, 500 g ai/ha, 0 to 100 scale (0 no effect, 100 complete control)
[7] = postemergence, 125 g ai/ha, about 10 days, visual rating on 0 to 100 scale (0 no effect, 100 complete control)
[8] = Preemergence, 62 g ai/ha, scale 0 to 100
[9] = Preemergence, 125 g ai/ha, scale 0 to 100
[10] = Preemergence, 250 g ai/ha, scale 0 to 100
[11] = preemergence, 16 g ai/ha, scale 0 to 100, 100 is complete control
[12] = Postemergence, 125 g ai/ha, 0 to 100 scale, 0 no effect, 100 complete control

SMILES: CCc1cc(C(=O)NOC(C)C)nn1Cc1ccnc(OC(F)F)c1 [Compound 126]
- Italian Ryegrass plant response rating [1, 6]: 100
- Italian Ryegrass plant response rating [1, 7]: 90
- Galium plant response rating [2, 6]: 90
- Galium plant response rating [2, 7]: 90

SMILES: CCCc1cc(C(=O)NCC(F)(F)F)nn1Cc1ccnc(OC(F)F)c1 [Compound 127]
- Italian Ryegrass plant response rating [1, 6]: 90
- Italian Ryegrass plant response rating [1, 7]: 80
- Galium plant response rating [2, 6]: 90
- Galium plant response rating [2, 7]: 90

SMILES: CCOc1cc(C(=O)NCC(F)(F)F)nn1Cc1ccnc(OC(F)F)c1 [Compound 128]
- Italian Ryegrass plant response rating [1, 6]: 100
- Italian Ryegrass plant response rating [1, 7]: 90
- Galium plant response rating [2, 6]: 100
- Galium plant response rating [2, 7]: 90

SMILES: CCCNC(=O)c1cc(OCC)n(Cc2ccnc(OC(F)F)c2)n1 [Compound 136]
- Italian Ryegrass plant response rating [1, 6]: 90
- Italian Ryegrass plant response rating [1, 7]: 80
- Galium plant response rating [2, 6]: 100
- Galium plant response rating [2, 7]: 90

SMILES: CCCc1cc(C(=O)NC(C)C)nn1Cc1cc(C(F)(F)F)nn1C [Compound 201]
- Plant response rating, Goosegrass [3, 8]: 50
- Plant response rating, Goosegrass [3, 9]: 95
- Plant response rating, Goosegrass [3, 10]: 95
- Plant response rating, Goosegrass [3, 11]: 0
- Plant response rating, Italian Ryegrass [4, 8]: 30
- Plant response rating, Italian Ryegrass [4, 9]: 75
- Plant response rating, Italian Ryegrass [4, 10]: 75
- Plant response rating, Italian Ryegrass [4, 11]: 0
- Plant response rating, Barnyardgrass ([5]; Preemergence, 16 g ai/ha, scale 0 to 100): 0
- Plant response rating, Barnyardgrass [5, 8]: 10
- Plant response rating, Barnyardgrass [5, 9]: 85
- Plant response rating, Barnyardgrass [5, 10]: 95
- Plant response rating, Barnyardgrass [5, 11]: 0

SMILES: CCCc1cc(C(=O)NC2CC2)nn1Cc1ccnc(OC(F)F)c1 [Compound 205]
- Italian Ryegrass plant response rating [1, 12]: 70
- Italian Ryegrass plant response rating [1, 6]: 100
- Galium plant response rating [2, 12]: 90
- Galium plant response rating [2, 6]: 90

SMILES: CCc1cc(C(=O)NCC(F)(F)F)nn1Cc1ccnc(Br)c1 [Compound 224]
- Plant response rating, Goosegrass [3, 8]: 35
- Plant response rating, Goosegrass [3, 9]: 60
- Plant response rating, Goosegrass [3, 10]: 95
- Plant response rating, Italian Ryegrass [4, 8]: 20
- Plant response rating, Italian Ryegrass [4, 9]: 0
- Plant response rating, Italian Ryegrass [4, 10]: 60
- Plant response rating, Barnyardgrass [5, 8]: 0
- Plant response rating, Barnyardgrass [5, 9]: 40
- Plant response rating, Barnyardgrass [5, 10]: 70
